In US9365572B2, “PI3K and/or mTOR inhibitor” (XUANZHU PHARMA CO., LTD., priority 2012, dated 2016):

Tests used:
[1] = biological target: Opiate δ1 (OP1, DOP) (Homo sapiens (Human), UniProt P41143); assay: Radioligand binding assay No. 260130; conditions: test substance 10 μM, read-out: Inhibitory rate (%), Opiate δ1 (OP1, DOP)
[2] = biological target: Serotonin (5-Hydroxytryptamine) 5-HT1A (Homo sapiens (Human), UniProt P08908); assay: Radioligand binding assay No. 271110; conditions: test substance 10 μM, read-out: Inhibitory rate (%), Serotonin (5-Hydroxytryptamine) 5-HT1A
[3] = test system: Sodium Channel, Site2; assay: Radioligand binding assay No. 279510; conditions: test substance 10 μM; rat
[4] = biological target: Androgen (Testosterone) AR (Rattus norvegicus (Rat), UniProt P15207); assay: Radioligand binding assay No. 285010; conditions: test substance 10 μM, read-out: Inhibitory rate (%), Androgen (Testosterone) AR
[5] = biological target: IGF1R (Homo sapiens (Human), UniProt P08069); assay: Kinase selectivity, Mobility shift assay; type: biochemical
Method: (§1) Object: In this assay, the inhibitory activity of the test substance on the kinases listed in Table 3 was determined, and therefore the selectivity of the present compound was determined.
(§2) Except for the BRAF V600E kinase in Table 3, the Mobility shift assay was used for other kinases.
(§3) 1. Preparation of Agents:
(§4) • 1.1 1-fold kinase buffer without MnCl2: 50 mM HEPES, pH 7.5, 0.0015% Brij-35, 10 mM MgCl2, 2 mM DTT. • 1.2 1-fold kinase buffer with MnCl2: 50 mM HEPES, pH 7.5, 0.0015% Brij-35, 10 mM MgCl2, 10 mM MnCl2, 2 mM DTT. • 1.3 Termination solution: 100 mM HEPES, pH 7.5, 0.0015% Brij-35, 0.2% Coating Reagent#3, 50 mM EDTA. • 1.4 2.5-fold kinase solution: The kinase was added to the 1-fold kinase buffer to form a 2.5-fold kinase solution. • 1.5 2.5-fold substrate solution: FAM fluorescence-labelled polypeptide and ATP were added to the 1-fold kinase buffer to form a 2.5-fold substrate solution. 2. Preparation of 5-fold compound
(§5) The final test concentration of the compound was 10 μM at maximum. Firstly, a 50-fold concentration (i.e. 500 μM) was prepared with 100% DMSO. The compound was diluted with 100% DMSO by 5 folds at 5 concentrations (successively 500 μM, 100 μM, 20 μM, 4 μM, and 0.8 μM). After diluting with 1-fold kinase buffer by 10 folds, 5 μl of the samples were transferred to a 384-well reaction plate. Two negative control wells and two positive control wells were set at each line respectively. Replication was made in a 96-well plate in five concentrations of 5-fold compound. 10% DMSO was added to the positive control well, and 5 μl of EDTA (250 mM) was added to the negative control well.
(§6) • 3.1 To the 384-well reaction plate was added 5-fold compound dissolved in 10% DMSO at 5 μl/well. • 3.2 To the 384-well reaction plate was added 2.5-fold kinase solution at 10 μl/well. The plate was incubated at room temperature for 10 mins. • 3.3 To the 384-well reaction plate was added 2.5-fold substrate solution at 10 μl/well. The plate was incubated at 28° C. for a certain period. • 3.4 25 μl termination solution was added to terminate the reaction. The conversion was read from Caliper. 4. Inhibition rate calculation Inhibition rate (%)=(maximum−sample value)/(maximum−minimum)×100 • wherein: • maximum refers to the conversion at the DMSO control well, • minimum refers to the conversion at the control well without kinase. Lanthascreen Analysis Method for the BRAF V600E Kinase 1. Preparation of Agents: • 1.1 2-fold kinase solution: using 1-fold kinase buffer to prepare 2-fold kinase solution, with a final concentration of 0.35 nM of BRAFV600E; • 1.2 4-fold substrate solution: using 1-fold kinase buffer to prepare 4-fold substrate solution, with a final substrate solution concentration of 0.2 μM of Fluorescein-MAP2K1 and 1.5 μM of ATP. 2. Preparation of 4-fold compound • The final test concentration of the compound was 10 μM at maximum. Firstly, a 100-fold concentration (i.e. 1000 μM) was prepared with 100% DMSO. The compound was diluted with 100% DMSO by 5 folds at 5 concentrations. The compound series was identical to that in the Mobility Shift Assay. After diluting with 1-fold kinase buffer by 25 folds, the resulting samples were shaked and mixed evenly on a plate-shaker for 10 mins. 3. Procedure • 3.1 To the 384-well reaction plate was added 4-fold compound dissolved in 10% DMSO at 2.5 µl/well; • 3.2 To the 384-well reaction plate was added 2-fold kinase solution at 5 μl/well, and to the negative control wells were added 1-fold kinase buffer. The samples were shaked, mixed evenly, and kept standing at room temperature. • 3.3 To the 384-well reaction plate was added 4-fold substrate solution at 2.5 μl/well. The plate was reacted, shaked, mixed evenly and incubated at room temperature for one hour; • 3.4 Reaction result detection: 2-fold detection solution was prepared, with a final concentration of 2 nM of Antibody and 10 mM of EDTA. 10 μl of the detection solution was transferred to the 384-well plate to terminate the reaction. […]

[6] = biological target: SGK (Homo sapiens (Human), UniProt O00141); assay: Kinase selectivity, Mobility shift assay; type: biochemical
Method: as §1, §2, §3, §4, §5, §6

[7] = biological target: CDK2 (Homo sapiens (Human), UniProt P24941); assay: Kinase selectivity, Mobility shift assay; type: biochemical
Method: as §1, §2, §3, §4, §5, §6

[8] = biological target: PAK2 (Homo sapiens (Human), UniProt Q13177); assay: Kinase selectivity, Mobility shift assay; type: biochemical
Method: as §1, §2, §3, §4, §5, §6

[9] = biological target: PKD1 (Homo sapiens (Human), UniProt Q15139); assay: Kinase selectivity, Mobility shift assay; type: biochemical
Method: as §1, §2, §3, §4, §5, §6

PKD1, sequence (Q15139 whole entry): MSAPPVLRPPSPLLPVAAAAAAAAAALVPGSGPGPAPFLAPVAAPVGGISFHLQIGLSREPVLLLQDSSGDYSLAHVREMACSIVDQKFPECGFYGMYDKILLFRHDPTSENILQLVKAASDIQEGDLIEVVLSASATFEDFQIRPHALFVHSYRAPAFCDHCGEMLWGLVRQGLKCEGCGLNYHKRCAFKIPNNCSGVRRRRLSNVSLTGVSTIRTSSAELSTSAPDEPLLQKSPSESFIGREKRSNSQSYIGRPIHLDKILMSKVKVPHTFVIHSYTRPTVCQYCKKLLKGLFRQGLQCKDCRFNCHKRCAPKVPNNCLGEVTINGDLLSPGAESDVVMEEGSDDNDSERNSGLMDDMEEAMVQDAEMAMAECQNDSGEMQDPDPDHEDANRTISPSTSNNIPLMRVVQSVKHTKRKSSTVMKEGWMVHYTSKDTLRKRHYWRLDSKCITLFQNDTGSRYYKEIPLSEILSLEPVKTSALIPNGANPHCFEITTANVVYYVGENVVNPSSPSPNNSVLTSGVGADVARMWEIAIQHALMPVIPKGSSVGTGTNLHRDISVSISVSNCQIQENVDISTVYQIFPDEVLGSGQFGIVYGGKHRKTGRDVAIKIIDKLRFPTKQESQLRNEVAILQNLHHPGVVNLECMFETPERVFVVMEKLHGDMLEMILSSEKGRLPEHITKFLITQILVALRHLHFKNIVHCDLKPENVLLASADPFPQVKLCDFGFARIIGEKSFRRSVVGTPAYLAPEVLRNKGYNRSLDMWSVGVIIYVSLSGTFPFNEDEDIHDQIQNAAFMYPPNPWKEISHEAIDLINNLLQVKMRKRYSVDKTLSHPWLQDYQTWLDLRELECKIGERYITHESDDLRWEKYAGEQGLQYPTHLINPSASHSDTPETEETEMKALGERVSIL
IGF1R, sequence (P08069 31-1367, species assumed): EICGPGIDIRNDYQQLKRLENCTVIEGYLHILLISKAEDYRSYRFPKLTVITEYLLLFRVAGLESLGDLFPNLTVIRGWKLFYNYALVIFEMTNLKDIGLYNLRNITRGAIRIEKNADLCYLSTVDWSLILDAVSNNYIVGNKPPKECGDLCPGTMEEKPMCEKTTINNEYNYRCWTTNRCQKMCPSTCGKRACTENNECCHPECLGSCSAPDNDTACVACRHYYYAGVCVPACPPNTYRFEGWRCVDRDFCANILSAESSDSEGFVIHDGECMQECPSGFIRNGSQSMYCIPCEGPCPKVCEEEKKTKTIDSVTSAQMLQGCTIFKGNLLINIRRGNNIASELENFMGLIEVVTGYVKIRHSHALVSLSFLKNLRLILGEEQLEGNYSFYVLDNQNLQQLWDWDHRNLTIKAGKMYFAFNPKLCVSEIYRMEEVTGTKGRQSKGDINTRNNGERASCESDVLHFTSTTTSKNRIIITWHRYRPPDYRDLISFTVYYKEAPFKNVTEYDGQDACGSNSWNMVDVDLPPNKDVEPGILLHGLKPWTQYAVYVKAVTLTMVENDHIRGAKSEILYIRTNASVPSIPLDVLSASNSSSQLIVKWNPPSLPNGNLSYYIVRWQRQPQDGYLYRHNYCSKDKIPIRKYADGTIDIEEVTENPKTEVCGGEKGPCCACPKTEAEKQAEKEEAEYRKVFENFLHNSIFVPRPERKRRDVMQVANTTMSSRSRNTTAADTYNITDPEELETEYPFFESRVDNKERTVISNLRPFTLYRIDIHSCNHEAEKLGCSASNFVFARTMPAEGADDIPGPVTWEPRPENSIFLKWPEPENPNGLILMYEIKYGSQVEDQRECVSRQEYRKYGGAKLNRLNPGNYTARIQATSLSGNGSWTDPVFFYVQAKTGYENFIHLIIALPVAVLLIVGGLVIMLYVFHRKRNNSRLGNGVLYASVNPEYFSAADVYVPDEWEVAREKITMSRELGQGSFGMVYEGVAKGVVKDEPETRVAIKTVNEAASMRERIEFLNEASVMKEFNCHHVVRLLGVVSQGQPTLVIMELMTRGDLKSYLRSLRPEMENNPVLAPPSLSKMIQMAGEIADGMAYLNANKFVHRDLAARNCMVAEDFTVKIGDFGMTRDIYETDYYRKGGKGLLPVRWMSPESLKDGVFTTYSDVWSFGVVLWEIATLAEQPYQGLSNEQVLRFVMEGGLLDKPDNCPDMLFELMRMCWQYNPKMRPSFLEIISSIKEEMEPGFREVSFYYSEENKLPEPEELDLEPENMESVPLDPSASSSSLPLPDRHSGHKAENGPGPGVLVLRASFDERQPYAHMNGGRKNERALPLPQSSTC
Serotonin (5-Hydroxytryptamine) 5-HT1A, sequence (P08908 whole entry): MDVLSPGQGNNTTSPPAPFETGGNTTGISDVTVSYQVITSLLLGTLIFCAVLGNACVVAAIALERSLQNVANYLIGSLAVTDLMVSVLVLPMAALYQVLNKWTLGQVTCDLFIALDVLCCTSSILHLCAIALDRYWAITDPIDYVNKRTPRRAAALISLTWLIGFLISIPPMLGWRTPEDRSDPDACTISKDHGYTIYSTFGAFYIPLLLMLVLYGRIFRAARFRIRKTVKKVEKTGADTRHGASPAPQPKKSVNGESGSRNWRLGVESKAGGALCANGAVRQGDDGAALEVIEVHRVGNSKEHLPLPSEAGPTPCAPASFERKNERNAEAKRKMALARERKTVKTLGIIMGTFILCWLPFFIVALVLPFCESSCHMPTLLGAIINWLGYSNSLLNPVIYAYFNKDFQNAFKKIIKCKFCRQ
Androgen (Testosterone) AR, sequence (P15207 whole entry S389L): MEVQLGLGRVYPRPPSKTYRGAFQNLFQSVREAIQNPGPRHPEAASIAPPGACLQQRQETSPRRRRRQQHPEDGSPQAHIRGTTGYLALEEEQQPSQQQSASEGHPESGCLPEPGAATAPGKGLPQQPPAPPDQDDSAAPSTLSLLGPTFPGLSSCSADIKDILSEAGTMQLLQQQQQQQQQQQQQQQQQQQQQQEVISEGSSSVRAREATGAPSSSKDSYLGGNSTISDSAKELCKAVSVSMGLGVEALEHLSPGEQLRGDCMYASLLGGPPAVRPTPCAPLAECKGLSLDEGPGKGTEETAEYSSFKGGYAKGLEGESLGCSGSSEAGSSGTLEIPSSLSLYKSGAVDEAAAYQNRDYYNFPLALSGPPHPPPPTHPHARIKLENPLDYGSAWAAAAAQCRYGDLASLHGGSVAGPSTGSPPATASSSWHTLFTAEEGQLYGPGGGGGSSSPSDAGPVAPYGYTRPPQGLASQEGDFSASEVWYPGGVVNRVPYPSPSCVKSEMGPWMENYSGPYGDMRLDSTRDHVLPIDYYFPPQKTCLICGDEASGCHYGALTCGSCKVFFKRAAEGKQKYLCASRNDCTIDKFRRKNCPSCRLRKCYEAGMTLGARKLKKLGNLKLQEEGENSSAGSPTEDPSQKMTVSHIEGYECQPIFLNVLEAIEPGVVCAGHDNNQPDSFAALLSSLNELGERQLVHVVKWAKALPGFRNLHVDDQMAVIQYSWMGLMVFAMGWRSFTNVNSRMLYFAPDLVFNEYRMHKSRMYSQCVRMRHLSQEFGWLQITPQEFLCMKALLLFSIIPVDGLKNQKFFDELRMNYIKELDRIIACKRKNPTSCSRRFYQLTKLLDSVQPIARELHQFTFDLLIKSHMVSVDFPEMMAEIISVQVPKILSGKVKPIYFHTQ
SGK, sequence (O00141 whole entry, species assumed): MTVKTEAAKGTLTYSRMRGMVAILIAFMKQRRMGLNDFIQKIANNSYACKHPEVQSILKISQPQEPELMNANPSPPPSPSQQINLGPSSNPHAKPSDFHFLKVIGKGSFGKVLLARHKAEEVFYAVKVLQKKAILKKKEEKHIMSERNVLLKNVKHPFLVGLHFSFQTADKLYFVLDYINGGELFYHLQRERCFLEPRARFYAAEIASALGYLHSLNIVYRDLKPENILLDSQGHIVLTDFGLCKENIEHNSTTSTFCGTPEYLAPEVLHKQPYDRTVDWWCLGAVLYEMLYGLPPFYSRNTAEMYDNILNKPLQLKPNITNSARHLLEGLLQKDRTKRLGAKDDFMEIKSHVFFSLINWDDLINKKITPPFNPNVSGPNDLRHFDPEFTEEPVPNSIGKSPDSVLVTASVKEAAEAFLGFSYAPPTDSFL
Opiate δ1 (OP1, DOP), sequence (P41143 whole entry): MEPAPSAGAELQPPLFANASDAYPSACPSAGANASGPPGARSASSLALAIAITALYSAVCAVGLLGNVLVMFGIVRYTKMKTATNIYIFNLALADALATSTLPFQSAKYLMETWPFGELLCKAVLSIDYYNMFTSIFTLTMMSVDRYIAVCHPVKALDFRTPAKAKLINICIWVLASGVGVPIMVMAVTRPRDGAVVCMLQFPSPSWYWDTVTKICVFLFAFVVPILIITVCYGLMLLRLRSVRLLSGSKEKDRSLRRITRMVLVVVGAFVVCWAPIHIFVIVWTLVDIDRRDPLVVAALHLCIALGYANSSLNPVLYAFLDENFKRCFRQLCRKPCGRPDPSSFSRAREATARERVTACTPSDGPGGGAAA
PAK2, sequence (Q13177 whole entry, species assumed): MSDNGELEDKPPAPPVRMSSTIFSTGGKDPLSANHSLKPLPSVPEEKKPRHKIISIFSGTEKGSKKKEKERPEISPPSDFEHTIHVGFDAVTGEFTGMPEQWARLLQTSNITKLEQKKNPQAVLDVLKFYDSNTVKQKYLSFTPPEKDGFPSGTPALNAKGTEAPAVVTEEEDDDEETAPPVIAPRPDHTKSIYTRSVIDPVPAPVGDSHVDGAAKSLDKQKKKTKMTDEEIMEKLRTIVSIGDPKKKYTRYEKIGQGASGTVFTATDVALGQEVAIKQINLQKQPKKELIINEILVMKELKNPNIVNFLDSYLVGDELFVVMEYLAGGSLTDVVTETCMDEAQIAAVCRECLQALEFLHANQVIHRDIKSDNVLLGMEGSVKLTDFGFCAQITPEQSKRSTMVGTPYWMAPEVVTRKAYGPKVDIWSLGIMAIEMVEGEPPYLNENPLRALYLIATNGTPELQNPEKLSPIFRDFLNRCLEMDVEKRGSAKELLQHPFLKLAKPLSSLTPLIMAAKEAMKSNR

Compound: Nc1ccc(-c2ccc3ncc4c(=O)[nH]c(=O)n(-c5cccc(C(F)(F)F)c5)c4c3n2)cn1 [Compound 5, 9-(6-aminopyridin-3-yl)-1-(3-(trifluoromethyl)phenyl)pyrimido[5,4-c][1,5]naphthyridine-2,4(1H,3H)-dione]
- inhibition at 10 µM [1]: 4%
- inhibition at 10 µM [2]: 25%
- Inhibitory rate (%), Sodium Channel, Site2 [3]: 7%
- inhibition at 10 µM [4]: 30%
- IC50 [5]: > 10000 nM
- IC50 [6]: > 10000 nM
- IC50 [7]: > 10000 nM
- IC50 [8]: > 10000 nM
- IC50 [9]: 2410 nM
